Patent US7332476B2, “Pyridyl substituted ketolide antibiotics” (Novartis AG, priority 2003, dated 2008)
Converted amounts (≈) assume the structure as drawn.

Experiments:
Experiment in all cases: MIC, broth microdilution (NCCLS)
[1] = tested on: Streptococcus pneumoniae Stpn_280-962; assay type: cell-based; parameters: MIC, strain ID O: unit not given beside the values
Procedure, shortened: (§1)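 Broth microdilution per NCCLS in cation-adjusted Mueller-Hinton broth, with 2-5% lysed horse blood added for S. pneumoniae. Inoculum 3×10^5–7×10^5 CFU/ml, 2-fold drug dilutions, 18-24 h at 35° C; S. pneumoniae under 5-10% CO2, others ambient air. MIC = lowest concentration preventing visible growth.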

[2] = tested on: S. pneumoniae Stpn_Erm 6849; assay type: cell-based, Streptococcus pneumoniae; settings: for MIC: Table 7, Strain ID I (Table 6): S. pneumoniae Stpn_Erm 6849, unit assumed
Procedure, shortened: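 Lowest drug concentration giving no visible growth after 18-24 hours at 35° C. under 5-10% CO2 was taken as MIC. Twofold serial dilutions in CAMHB plus 2-5% lysed horse blood, final inoculum 3×10^5–7×10^5 CFU/ml, per NCCLS microdilution.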

[3] = tested on: Enterococcus faecalis Enfa_29212; assay type: cell-based; settings: in µg/mL (unit assumed)
Procedure, shortened: as §1

[4] = tested on: Staphylococcus epidermidis Step_14990; assay type: cell-based; settings: in µg/mL (unit assumed)
Procedure, shortened: as §1

[5] = tested on: Streptococcus pyogenes Stpy_8668; assay type: cell-based; parameters: MIC, strain ID G: unit not given beside the values
Procedure, shortened: as §1

[6] = tested on: Staphylococcus aureus Stau_33591; assay type: cell-based; settings: unit assumed; for MIC: Table 10, Strain ID B (Table 8): Staphylococcus aureus Stau_33591
Description: (§2) Strains. The bacterial isolates listed in Table 8 were cultivated from −70° C. frozen stocks by two consecutive overnight passages (P1, P2) at 35° C. on 5% blood agar (Remel, Lenexa, Kans.). Chocolate agar (Remel) is used for Haemophilus influenzae. H. influenzae and Streptococcus pneumoniae are incubated in 5-10% CO2
(§3) Drug Stock Preparation. To determine the amount of solvent to be used to give the desired final concentration, the formula “weight obtained in mg/final concentration in mg/ml” will be used. It will give the amount of solvent in ml needed to be added to give the desired concentration. For example, if 2.5 mg/ml is the desired concentration and the weight of compound is 13.7 mg, then the amount of solvent to be added is […]. Methanol is used as the solvent to dissolve the test compounds. Further dilution of stock is done in sterile, deionized water. Drug stocks are kept frozen at −70° C., protected from light.
(§4) Susceptibility Testing. MICs are determined by the broth microdilution method in accordance with the NCCLS guidelines. In brief, organism suspensions are adjusted to a 0.5 McFarland standard to yield a final inoculum between 3×10^5 and 7×10^5 CFU/ml. Drug dilutions and inocula are made in sterile, cation adjusted Mueller-Hinton Broth (CAMHB) (Remel) for all but S. pneumoniae [CAMHB with 2-5% lysed horse blood (Remel)] and H. influenzae [Haemophilus Test Medium (Remel)]. An inoculum volume of 100 μl is added to wells containing 100 μl of broth with 2-fold serial dilutions of drug. All inoculated microdilution trays are incubated in ambient air at 35° C. for 18-24 hours, except for S. pneumoniae, and H. influenzae (both at 5-10% CO2).
(§5) Following appropriate incubation, the MIC is determined and the MIC is defined as the lowest concentration of the drug that prevented visible growth. […] Antibacterial activity of representative compounds of the invention were compared against telitromycin.

[7] = tested on: Streptococcus pneumoniae Stpn_297-749; assay type: cell-based; parameters: MIC, strain ID N: unit not given here
Procedure, shortened: as §1

[8] = tested on: Streptococcus pneumoniae Stpn_49619; assay type: cell-based; parameters: MIC, strain ID M: unit not given beside the values
Procedure, shortened: as §1

[9] = tested on: Streptococcus pneumoniae Stpn_Mef 5654; assay type: cell-based; settings: in µg/mL (unit assumed)
Procedure, shortened: as §1

[10] = tested on: Haemophilus influenzae Hain_49247; assay type: cell-based; settings: unit assumed
[11] = tested on: Staphylococcus aureus Stau_29213; assay type: cell-based; settings: in µg/mL (unit assumed)
Procedure, shortened: as §1

[12] = tested on: Staphylococcus epidermidis Step_f50654; assay type: cell-based; settings: in µg/mL (unit assumed)
Procedure, shortened: as §1

[13] = tested on: Streptococcus pneumoniae Stpn_Mef S 3427; assay type: cell-based
Procedure, shortened: as §1

[14] = tested on: Enterococcus faecalis Enfa_bc 11148-2; assay type: cell-based; settings: Table 10, Strain ID F (Table 8): Enterococcus faecalis Enfa_bc 11148-2; in µg/mL (unit assumed)
Description: as §2, §3, §4, §5

[15] = tested on: Haemophilus influenzae Hain_960820544-3; assay type: cell-based; settings: Table 10, Strain ID J (Table 8): Haemophilus influenzae Hain_960820544-3; in µg/mL (unit assumed)
Description: as §2, §3, §4, §5

[16] = tested on: Haemophilus influenzae Hain_960730503-3; assay type: cell-based; settings: Table 10, Strain ID I (Table 8): Haemophilus influenzae Hain_960730503-3; in µg/mL (unit assumed)
Description: as §2, §3, §4, §5

[17] = tested on: Haemophilus influenzae Hain_2762; assay type: cell-based; settings: Table 10, Strain ID L (Table 8): Haemophilus influenzae Hain_2762; in µg/mL (unit assumed)
Description: as §2, §3, §4, §5

[18] = tested on: Haemophilus influenzae Hain_953460299-3; assay type: cell-based; settings: Table 10, Strain ID K (Table 8): Haemophilus influenzae Hain_953460299-3; in µg/mL (unit assumed)
Description: as §2, §3, §4, §5

[19] = tested on: Streptococcus pneumoniae Stpn_Erm S 4297; assay type: cell-based; settings: Table 7, Strain ID J (Table 6): S. pneumoniae Stpn_Erm S 4297
Procedure, shortened: as §1

[20] = Table 10, Strain ID O (Table 8): Streptococcus pneumoniae Stpn_280-962
[21] = Table 10, Strain ID P (Table 8): Streptococcus pneumoniae Stpn_Mef 5654
[22] = Table 10, Strain ID H (Table 8): Haemophilus influenzae Hain_49247
[23] = Table 10, Strain ID A (Table 8): Staphylococcus aureus Stau_29213
[24] = Table 10, Strain ID D (Table 8): Staphylococcus epidermidis Step_f50654
[25] = Table 10, Strain ID E (Table 8): Enterococcus faecalis Enfa_29212
[26] = Table 10, Strain ID C (Table 8): Staphylococcus epidermidis Step_14990
[27] = Table 10, Strain ID Q (Table 8): Streptococcus pneumoniae Stpn_Mef S 3427, in µg/mL (unit assumed)
[28] = Table 10, Strain ID N (Table 8): Streptococcus pneumoniae Stpn_297-749
[29] = Table 10, Strain ID M (Table 8): Streptococcus pneumoniae Stpn_49619
[30] = Table 7, Strain ID H (Table 6): S. pneumoniae Stpn_280-962
[31] = Table 7, Strain ID K (Table 6): S. pneumoniae Stpn_Mef 5654
[32] = Table 7, Strain ID M (Table 6): H. influenzae Hain_49247
[33] = Table 7, Strain ID A (Table 6): S. aureus Stau_29213
[34] = Table 7, Strain ID C (Table 6): S. epidermidis Step_f50654
[35] = Table 7, Strain ID D (Table 6): E. faecalis Enfa_29212
[36] = Table 7, Strain ID B (Table 6): S. epidermidis Step_14990
[37] = Table 7, Strain ID E (Table 6): S. pyogenes Stpy_8668
[38] = Table 7, Strain ID G (Table 6): S. pneumoniae Stpn_297-749
[39] = Table 7, Strain ID F (Table 6): S. pneumoniae Stpn_49619

SMILES	MIC [1, 20]	MIC [9, 21]	MIC [10, 22] [µg/mL]	MIC [11, 23]	MIC [12, 24]	MIC [3, 25]	MIC [4, 26]	MIC [13, 27]	MIC [14]	MIC [15]	MIC [6] [µg/mL]	MIC [16]	MIC [17]	MIC [18]	MIC [7, 28]	MIC [8, 29]	MIC [1, 30]	MIC [9, 31]	MIC [2] [µg/mL]	MIC [10, 32] [µg/mL]	other results
C#C[C@]12OC(=O)N(CCCCn3cnc(-c4ccc(C)nc4)c3)[C@@H]1[C@@H](C)C(=O)[C@H](C)C[C@](C)(OC)[C@H](OC1O[C@H](C)C[C@H](N(C)C)[C@H]1O)[C@@H](C)C(=O)[C@@H](C)C(=O)O[C@@H]2CC (some centres unmarked) [XXXIII]																					MIC, strain ID O ([1]; strain ID O, broth microdilution): =0.05; MIC, strain ID P ([2]; strain ID P, broth microdilution, in µg/mL (unit assumed)): 1.56; MIC, strain ID E ([3]; strain ID E, broth microdilution): 0.1; MIC, strain ID C ([4]; strain ID C, broth microdilution): 0.2; MIC, strain ID G ([5]; strain ID G, broth microdilution): =0.05; MIC, strain ID B ([6]; strain ID B, broth microdilution): > 50 µg/mL; MIC, strain ID N ([7]; strain ID N, broth microdilution): =0.05; MIC, strain ID M ([8]; strain ID M, broth microdilution): =0.05
C=C[C@]12OC(=O)N(CCCCn3cnc(-c4ccc(N(C)C)nc4)c3)[C@@H]1[C@@H](C)C(=O)[C@H](C)C[C@](C)(OC)[C@H](OC1O[C@H](C)C[C@H](N(C)C)[C@H]1O)[C@@H](C)C(=O)[C@@H](C)C(=O)O[C@@H]2CC (some centres unmarked) [XXIV]	=0.05	1.56	12.5 (≈ 14.4 µM)	0.2	0.2	0.1	0.2	0.4	0.78	6.25	> 50	12.5	1.56	12.5	=0.05	=0.05					MIC ([5]; Table 10, Strain ID G (Table 8): Streptococcus pyogenes Stpy_8668): =0.05
C=C[C@]12OC(=O)N(CCCCn3cnc(-c4ccc(OC)nc4)c3C)[C@@H]1[C@@H](C)C(=O)[C@H](C)C[C@](C)(OC)[C@H](OC1O[C@H](C)C[C@H](N(C)C)[C@H]1O)[C@@H](C)C(=O)[C@@H](C)C(=O)O[C@@H]2CC (some centres unmarked) [XXVI]	=0.05	1.56	6.25 (≈ 7.2 µM)	0.2	0.4	0.2	0.1	0.2	1.56	12.5	> 50	12.5	1.56	12.5	=0.05	=0.05					MIC ([5]; Table 10, Strain ID G (Table 8): Streptococcus pyogenes Stpy_8668, unit assumed): 0.1 µg/mL (≈ 0.115 µM)
C=C[C@]12OC(=O)N(CCCCn3cnc(-c4cccnc4)c3)[C@@H]1[C@@H](C)C(=O)[C@H](C)C[C@](C)(OC)[C@H](OC1O[C@H](C)C[C@H](N(C)C)[C@H]1O)[C@@H](C)C(=O)[C@@H](C)C(=O)O[C@@H]2CC (stereo partly drawn) [Example 48, (3aS,4R,7R,9R,10R,11R,13R,15R,15aR)-4-ETHYL-11-METHOXY-7,9,11,13,15-PENTAMETHYL-2,6,8,14-TETRAOXO-1-[4-(4-PYRIDIN-3-YL-1H-IMIDAZOL-1-YL)BUTYL]-3a-VINYLTETRADECAHYDRO-1H-OXACYCLOTETRADECINO[4,3-D][1,3]OXAZOL-10-YL-3,4,6-TRIDEOXY-3-(DIMETHYLAMINO)-D-XYLO-HEXOPYRANOSIDE]																	=0.05	0.78	0.4 (≈ 0.485 µM)	3.13 (≈ 3.8 µM)	MIC [11, 33]: 0.2; MIC [19]: =0.05; MIC [12, 34]: 0.2; MIC [3, 35]: 0.1; MIC [4, 36]: 0.2; MIC ([13]; Table 7, Strain ID L (Table 6): S. pneumoniae Stpn_Mef S 3427, in µg/mL (unit assumed)): 0.1; MIC [5, 37]: =0.05; MIC [7, 38]: =0.05; MIC [8, 39]: =0.05
CCC1OC(=O)C(C)C(=O)C(C)C(OC2OC(C)CC(N(C)C)C2O)C(C)(OC)CC(C)C(=O)C(C)C2C1OC(=O)N2CCCCc1ncc(-c2cccc(N)c2)s1 (centres unmarked) [Compound 20v]																	=0.05	0.78	50 (≈ 60.3 µM)	6.25 (≈ 7.54 µM)	MIC [11, 33]: 0.4; MIC ([19]; unit assumed): 0.4 µg/mL (≈ 0.482 µM); MIC [12, 34]: 0.2; MIC [3, 35]: 0.2; MIC [4, 36]: 0.4; MIC ([13]; Table 7, Strain ID L (Table 6): S. pneumoniae Stpn_Mef S 3427): =0.05; MIC [5, 37]: =0.05; MIC [7, 38]: =0.05; MIC [8, 39]: =0.05
